# Counter-ions that a name gives are not always drawn. Like-named read-outs stand apart in the source and are kept apart here.
# Experiments:
# [1] = test system: human cancer cell lines and murine P388; assay: cells; assay type: cell-based; details: for IC50: Mus musculus
# Protocol: (§1) Cytotoxicity assays were performed by the sulforhodamine B method, in which inhibition of formation of cellular protein is measured (Ref. 42). The mitotic index of MCF-7 breast cancer cells was determined as described previously (Ref. 27), except that cells were incubated in the presence of drug for 16 h prior to addition of the DNA stain.
# [2] = test system: Bovine brain tubulin (colchicine site); assay: Inhibition of [3H]colchicine binding to tubulin; details: 1.0 μM tubulin, 5.0 μM [3H]colchicine
# Protocol: (§2) Bovine brain tubulin was prepared and the tubulin assembly and colchicine binding assays were performed as described previously. In the assembly assay, reaction mixtures contained 1.0 mg/mL (10 μM) tubulin and varying concentrations of potential inhibitors. In the colchicine binding assay reaction mixtures contained 0.1 mg/mL (1.0 μM) tubulin, 5.0 μM [^3H]colchicine, and potential inhibitor as indicated. The vinblastine binding assay was performed as described previously for GTP binding by centrifugal gel filtration, except that a Beckman Allegra 6KR centrifuge equipped with a GH-3.8A swinging bucket rotor was used and the syringe-columns were centrifuged at 2,000 rpm (Ref. 38-41). Reaction mixtures contained 0.5 mg/mL (5.0 μM) tubulin, 5 μM [^3H]vinblastine, potential inhibitor as indicated, 0.5 mM MgCl2, 0.1 M 4-morpholineethanesulfonate (1.0 M stock solution adjusted to pH 6.9 with NaOH, and 4% (v/v) dimethyl sulfoxide. Incubation (30 min) and centrifugal gel filtration were performed at room temperature (20-22° C.).
# [3] = test system: Bovine brain tubulin (vinca domain); assay: Inhibition of [3H]vinblastine binding to tubulin; details: 5.0 μM tubulin, 5 μM [3H]vinblastine
# Protocol: as §2
# Bovine brain tubulin = assay: Inhibition of tubulin assembly; assay type: biochemical; details: 1.0 mg/mL (10 μM) tubulin; read-out: Inhibition of tubulin assembly IC50 (μM) ± SD
# Protocol: as §2
# [4] = Solubility in distilled water; assay type: physicochemical; details: for Solubility / solubility: 1 mL distilled water at 25° C.
# NCI-H460 = assay: cells; assay type: cell-based, human; details: for GI50: Homo sapiens, read-out: Lung-NSC NCI-H460 GI50
# Protocol: as §1
# KM20L2 = assay: cells; assay type: cell-based, human; details: for GI50: Homo sapiens, KM-20L2, read-out: Colon KM20L2 GI50
# Protocol: as §1
# BXPC-3 = assay: cells; assay type: cell-based, human; details: for GI50: Homo sapiens, read-out: Pancreas BXPC-3 GI50
# Protocol: as §1
# MCF-7 = assay: cells; assay type: cell-based, human; details: for GI50: Homo sapiens, MCF7, read-out: Breast MCF-7 GI50
# Protocol: as §1
# SF-295 = assay: cells; assay type: cell-based, human; details: for GI50: Homo sapiens, read-out: CNS SF-295 GI50
# Protocol: as §1
# DU145 = assay: cells; assay type: cell-based, human; details: for GI50: Homo sapiens, DU-145, read-out: Prostate DU145 GI50
# Protocol: as §1
# [5] = test system: Neisseria gonorrhoeae ATCC 49226; assay: Broth microdilution assay, Neisseria gonorrhoeae; assay type: cell-based
# Text: (§3) Compounds were screened in broth microdilution assays according to National Committee for Clinical Laboratory Standards (Ref. 43-44). Assays were repeated at least twice on separate days.
# [6] = test system: Enterococcus faecalis ATCC 29212; assay: Broth microdilution assay, Enterococcus faecalis; assay type: cell-based
# Text: as §3
# [7] = test system: P388 lymphocytic leukemia cell line; assay type: cell-based; details: murine P388 lymphocytic leukemia cell line
# Protocol: as §1
# [8] = test system: Cryptococcus neoformans ATCC 90112; assay: Broth microdilution assay, Cryptococcus neoformans; assay type: cell-based; details: ATCC90112
# Text: as §3
# [9] = test system: Streptococcus pneumoniae ATCC 6303; assay: Broth microdilution assay, Streptococcus pneumoniae; assay type: cell-based; details: ATCC6303
# Text: as §3
# [10] = P388, mean over the cell lines of Table 2, read-out: Mean
compound,measurement,setting,value
"COc1ccc(/C=C\c2cc(OC)c3c(c2)OCO3)cc1N [Compound 1a, 3,4-Methylenedioxy-5,4^1-Dimethoxy-3^1-Amino-Z-Stilbene, reference compound]",IC50,"[1]; P388, read-out: Mean",0.013 µg/mL
COc1ccc(C=Cc2cc(OC)c3c(c2)OCO3)cc1N [Compound 1b],Inhibition of colchicine binding % Inhibition ± SD,[2]; 2 μM inhibitor,85 ± 3%
same,Inhibition of vinblastine binding % Inhibition ± SD,[3]; 10 μM inhibitor,0%
same,Inhibition of vinblastine binding % Inhibition ± SD,[3]; 80 μM inhibitor,0%
"COc1ccc(C=Cc2cc(OC)c(OC)c(OC)c2)cc1O [Compound 2g, combretastatin A-4]",Inhibition of colchicine binding % Inhibition ± SD,[2]; 2 μM inhibitor,98 ± 0.4%
same,Inhibition of vinblastine binding % Inhibition ± SD,[3]; 10 μM inhibitor,0%
same,Inhibition of vinblastine binding % Inhibition ± SD,[3]; 80 μM inhibitor,0%
"COc1ccc(/C=C\c2cc(OC)c3c(c2)OCO3)cc1NC(=O)[C@@H](N)Cc1ccc(OP(=O)(O)O)cc1 [Compound 3a, 3,4-Methylenedioxy-5,4′-dimethoxy-3′-(O-phosphoryl-N^α-L-Tyr)-amido-Z-stilbene]",Solubility,[4],<0.1 mg/mL
same,water solubility (in words),[4],only sparing water solubility
same,Lung-NSC NCI-H460 GI50,NCI-H460,>1 µg/mL
same,Colon KM20L2 GI50,KM20L2,>1 µg/mL
same,Pancreas BXPC-3 GI50,BXPC-3,>1 µg/mL
same,Breast MCF-7 GI50,MCF-7,>1 µg/mL
same,CNS SF-295 GI50,SF-295,>1 µg/mL
same,Prostate DU145 GI50,DU145,>1 µg/mL
same,MIC,[5],0.125 µg/mL
same,MIC,[6],64 µg/mL
same,Leukemia P388 ED50,[7],>10 µg/mL
"CC[C@H](C)[C@@H]([C@@H](CC(=O)N1CCC[C@H]1[C@H](OC)[C@@H](C)C(=O)N[C@@H](Cc1ccccc1)c1nccs1)OC)N(C)C(=O)[C@@H](NC(=O)[C@H](C(C)C)N(C)C)C(C)C [Compound 4a, Dolastatin 10]",Inhibition of colchicine binding % Inhibition ± SD,[2]; 2 μM inhibitor,13 ± 5%
same,Inhibition of vinblastine binding % Inhibition ± SD,[3]; 10 μM inhibitor,96 ± 0.7%
"CC[C@H](C)[C@@H]([C@@H](CC(=O)N1CCC[C@H]1[C@H](OC)[C@@H](C)C(=O)O)OC)N(C)C(=O)[C@@H](NC(=O)[C@H](C(C)C)N(C)C)C(C)C [Compound 4b, Dov-Val-Dil-Dap]",Inhibition of colchicine binding % Inhibition ± SD,[2]; 50 μM inhibitor,5.2 ± 3%
same,Inhibition of vinblastine binding % Inhibition ± SD,[3]; 10 μM inhibitor,16 ± 6%
same,Inhibition of vinblastine binding % Inhibition ± SD,[3]; 80 μM inhibitor,68 ± 0.4%
"COc1ccc(/C=C\c2cc(OC)c3c(c2)OCO3)cc1NC(=O)[C@H](Cc1ccc(OP(=O)(OCc2ccccc2)OCc2ccccc2)cc1)NP(=O)(OCc1ccccc1)OCc1ccccc1 [Compound 5, 3,4-Methylenedioxy-5,4′-dimethoxy-3′-[O,N^α-di(bis-benzylphosphoryl)-L-Tyr]-amido-Z-stilbene]",Leukemia P388 ED50,[7],>10 µg/mL
"COc1ccc(/C=C\c2cc(OC)c3c(c2)OCO3)cc1NC(=O)[C@H](Cc1ccc(OC(C)(C)C)cc1)NC(=O)OCc1ccccc1 [Compound 7, 3,4-Methylenedioxy-5,4′-dimethoxy-3′-(O-tert-butyl-N^α-Z-L-Tyr)-amido-Z-stilbene]",Mean,[1]; mean over the cell lines of Table 2,0.61 µg/mL
same,Lung-NSC NCI-H460 GI50,NCI-H460,0.41 µg/mL
same,Colon KM20L2 GI50,KM20L2,1.8 µg/mL
same,Pancreas BXPC-3 GI50,BXPC-3,0.049 µg/mL
same,Breast MCF-7 GI50,MCF-7,0.36 µg/mL
same,CNS SF-295 GI50,SF-295,0.44 µg/mL
same,Prostate DU145 GI50,DU145,0.39 µg/mL
same,Leukemia P388 ED50,[7],0.380 µg/mL
"COc1ccc(/C=C\c2cc(OC)c3c(c2)OCO3)cc1NC(=O)[C@H](Cc1ccc(OP(=O)(OCc2ccccc2)OCc2ccccc2)cc1)NC(=O)OCc1ccccc1 [Compound 8, 3,4-Methylenedioxy-5,4′-dimethoxy-3′-(O-bis-benzylphosphoryl-N^α-Z-L-Tyr)-amido-Z-stilbene]",Lung-NSC NCI-H460 GI50,NCI-H460,>10 µg/mL
same,Colon KM20L2 GI50,KM20L2,>10 µg/mL
same,Pancreas BXPC-3 GI50,BXPC-3,>10 µg/mL
same,Breast MCF-7 GI50,MCF-7,>10 µg/mL
same,CNS SF-295 GI50,SF-295,>10 µg/mL
same,Prostate DU145 GI50,DU145,>10 µg/mL
same,MIC,[6],64 µg/mL
same,Leukemia P388 ED50,[7],0.133 µg/mL
"COc1ccc(/C=C\c2cc(OC)c3c(c2)OCO3)cc1NC(=O)[C@@H](N)Cc1ccc(O)cc1.Cl [Compound 9, 3,4-Methylenedioxy-5,4′-dimethoxy-3′-(N^α-L-Tyr)-amido-Z-stilbene hydrochloride]",solubility,[4],< 100 µg/mL
same,Solubility,[4]; hydrochloride,<0.1 mg/mL
same,water solubility (in words),[4],only sparing water solubility
same,IC50,[1]; [10],0.059 µg/mL
same,inhibition of mini-panel of human cancer cell lines (in words),[1],strongly inhibiting
same,melting point,,169 to 170.5 °C
same,GI50,NCI-H460,0.096 µg/mL
same,GI50,KM20L2,0.034 µg/mL
same,GI50,BXPC-3,0.064 µg/mL
same,GI50,MCF-7,0.041 µg/mL
same,GI50,SF-295,0.064 µg/mL
same,GI50,DU145,0.08 µg/mL
same,Leukemia P388 ED50,[7],0.0329 µg/mL
"COc1ccc(/C=C\c2cc(OC)c3c(c2)OCO3)cc1NC(=O)[C@H](CC(=O)OC(C)(C)C)NC(=O)OC(C)(C)C [Compound 10, 3,4-Methylenedioxy-5,4′-dimethoxy-3′-(O^β-tert-butyl-N^α-Boc-L-Asp)-amido-Z-stilbene]",IC50,[1]; [10],2.4 µg/mL
same,GI50,NCI-H460,3.8 µg/mL
same,GI50,KM20L2,2.3 µg/mL
same,GI50,BXPC-3,3.4 µg/mL
same,GI50,MCF-7,2.4 µg/mL
same,GI50,SF-295,1.7 µg/mL
same,GI50,DU145,3 µg/mL
same,Leukemia P388 ED50,[7],0.385 µg/mL
"COc1ccc(/C=C\c2cc(OC)c3c(c2)OCO3)cc1NC(=O)[C@@H](N)CC(=O)[O-].[Na+] [Compound 11, Sodium 3,4-methylenedioxy-5,4′-dimethoxy-3′-(N^α-L-Asp)-amido-Z-stilbene]",Solubility,[4],<0.1 mg/mL
same,solubility,[4],< 100 µg/mL
same,water solubility (in words),[4],only sparing water solubility
same,IC50,[1]; [10],0.33 µg/mL
same,melting point,,168 to 170 °C
same,GI50,NCI-H460,0.3 µg/mL
same,GI50,KM20L2,0.19 µg/mL
same,GI50,BXPC-3,0.38 µg/mL
same,GI50,MCF-7,0.51 µg/mL
same,GI50,SF-295,0.25 µg/mL
same,GI50,DU145,0.33 µg/mL
same,Leukemia P388 ED50,[7],0.361 µg/mL
"COc1ccc(/C=C\c2cc(OC)c3c(c2)OCO3)cc1NC(=O)[C@H](C)[C@@H](OC)[C@@H]1CCCN1C(=O)OC(C)(C)C [Compound 13, 3,4-Methylenedioxy-5,4′-dimethoxy-3′-(N^α-Boc-L-Dap)-amido-Z-stilbene]",MIC,[8],64 µg/mL
same,IC50,[1]; [10],0.7 µg/mL
same,GI50,NCI-H460,0.52 µg/mL
same,GI50,KM20L2,1.9 µg/mL
same,GI50,BXPC-3,0.58 µg/mL
same,GI50,MCF-7,0.53 µg/mL
same,GI50,SF-295,0.75 µg/mL
same,GI50,DU145,0.38 µg/mL
same,Leukemia P388 ED50,[7],0.225 µg/mL
"COc1ccc(/C=C\c2cc(OC)c3c(c2)OCO3)cc1NC(=O)[C@H](C)[C@@H](OC)[C@@H]1CCCN1 [Compound 14, 3,4-Methylenedioxy-5,4′-dimethoxy-3′-(N^α-L-Dap)-amido-Z-stilbene TFA salt]",MIC,[8],64 µg/mL
same,IC50,[1]; [10],0.11 µg/mL
same,inhibition of mini-panel of human cancer cell lines (in words),[1],strongly inhibiting
same,GI50,NCI-H460,0.083 µg/mL
same,GI50,KM20L2,0.26 µg/mL
same,GI50,BXPC-3,0.23 µg/mL
same,GI50,MCF-7,0.054 µg/mL
same,GI50,SF-295,0.062 µg/mL
same,GI50,DU145,0.07 µg/mL
same,MIC,"[5]; ATCC49226, read-out: MIC",16 µg/mL
same,MIC,"[6]; ATCC29212, read-out: MIC",32 to 64 µg/mL
same,MIC,[9],8 to 16 µg/mL
same,Leukemia P388 ED50,[7],0.0263 µg/mL
"Sodium 3,4-methylenedioxy-5,4′-dimethoxy-3′-(L-Tyr)-amido-Z-stilbene 3′-O,N^α-diphosphate [Compound 6]",Solubility,[4],<0.1 mg/mL
same,water solubility (in words),[4],only sparing water solubility
same,Lung-NSC NCI-H460 GI50,NCI-H460,>1 µg/mL
same,Colon KM20L2 GI50,KM20L2,>1 µg/mL
same,Breast MCF-7 GI50,MCF-7,1.3 µg/mL
same,CNS SF-295 GI50,SF-295,>1 µg/mL
same,Prostate DU145 GI50,DU145,>1 µg/mL
same,MIC,[5],4 µg/mL
same,Leukemia P388 ED50,[7],0.270 µg/mL
